The results in this text go back to patent publication US9249102B2 (priority 2012, dated 2016).

The first experiment has as its system Haemonchus contortus. As to the kind of experiment: Method A: Haemonchus contortus L1 larvae, microtitre plate screen. The following applies: 96 h, read-out: motility inhibition.
In general, inhibition refers to the relative decrease from the control value, in per cent. As to `N#Cc1ccc(N[C@H]2CC[C@H](OCC(=O)N3CCN(Cc4oc5ccc(F)cc5c4Cl)CC3)CC2)cc1C(F)(F)F` [Compound 313, 4-(4-{2-[4-(3-chloro-5-fluoro-benzofuran-2-ylmethyl)-piperazin-1-yl]-2-oxo-ethoxy}-cyclohexylamino)-2-trifluoromethyl-benzonitrile], the inhibition at 5 µg/mL is not below 90%.

Turning to `C[C@@H]1CN(Cc2nc3cc(C(F)(F)F)ccc3s2)[C@@H](C)CN1C(=O)CO[C@H]1CC[C@H](Nc2ccc([N+](=O)[O-])c(C(F)(F)F)c2)CC1` [Compound 365, 1-[(2R,5S)-2,5-dimethyl-4-(5-trifluoromethyl-benzothiazol-2-ylmethyl)-piperazin-1-yl]-2-[4-(4-nitro-3-trifluoromethyl-phenylamino)-cyclohexyloxy]-ethanone], the inhibition at 5 µg/mL is not below 90%.

Take `O=C(CO[C@H]1CC[C@H](Nc2ccc([N+](=O)[O-])c(C(F)(F)F)c2)CC1)N1CCN(CCc2cc3cc(C(F)(F)F)ccc3o2)CC1` [Compound 324, 2-[4-[4-nitro-3-(trifluoromethyl)anilino]cyclohexoxy]-1-[4-[2-[5-(trifluoromethyl)benzofuran-2-yl]ethyl]piperazin-1-yl]ethanone]: the inhibition at 5 µg/mL was not below 90%.

For the compound `C[C@@H]([C@@H]1Cc2cc(F)ccc2O1)N1CCN(C(=O)COC2CCC(Nc3ccc([N+](=O)[O-])c(C(F)(F)F)c3)CC2)CC1` (relative stereo) [Compound 260-10, 1-(4-((S)-1-((S)-5-fluoro-2,3-dihydrobenzofuran-2-yl)ethyl)piperazin-1-yl)-2-(4-(4-nitro-3-(trifluoromethyl)phenylamino)cyclohexyloxy)ethanone], the inhibition at 5 µg/mL was not below 90%.

For the compound `O=C(CO[C@H]1CC[C@H](Nc2ccc([N+](=O)[O-])c(C(F)(F)F)c2)CC1)N1CCN(Cc2oc3ccc(Cl)cc3c2Cl)CC1` [Compound 316, 1-[4-(3,5-dichloro-benzofuran-2-ylmethyl)-piperazin-1-yl]-2-[4-(4-nitro-3-trifluoromethyl-phenylamino)-cyclohexyloxy]-ethanone], the inhibition at 5 µg/mL is not below 90%.

As for `O=C(CO[C@H]1CC[C@H](Nc2ccc([N+](=O)[O-])c(C(F)(F)F)c2)CC1)N1CCN(c2ccc3cc(Br)ccc3c2F)CC1` [Compound 267, 1-[4-(6-bromo-1-fluoro-naphthalen-2-yl)-piperazin-1-yl]-2-[4-(4-nitro-3-trifluoromethyl-phenylamino)-cyclohexyloxy]-ethanone], the inhibition at 5 µg/mL was not below 90%.

Consider `CN(c1ccc(C#N)c(C(F)(F)F)c1)[C@H]1CC[C@H](OCC(=O)N2CCN(CC3Cc4cc(F)ccc4O3)CC2)CC1` (stereo partly drawn) [Compound 280, 4-[(4-{2-[4-(5-fluoro-2,3-dihydro-benzofuran-2-ylmethyl)-piperazin-1-yl]-2-oxo-ethoxy}-cyclohexyl)-methyl-amino]-2-trifluoromethyl-benzonitrile], for which the inhibition at 5 µg/mL was not below 90%.

For `C[C@@H]1CN(Cc2ccc3cc(F)ccc3c2)[C@@H](C)CN1C(=O)CO[C@H]1CC[C@H](Nc2ccc([N+](=O)[O-])c(C(F)(F)F)c2)CC1` [Compound 357, 1-[(2R,5S)-4-(6-fluoro-naphthalen-2-ylmethyl)-2,5-dimethyl-piperazin-1-yl]-2-[4-(4-nitro-3-trifluoromethyl-phenylamino)-cyclohexyloxy]-ethanone], the inhibition at 5 µg/mL was not below 90%.

For the compound `N#Cc1ccc(N[C@H]2CC[C@H](OCC(=O)N3CCN(C(=O)C4Cc5cc(F)ccc5O4)CC3)CC2)cc1C(F)(F)F` (stereo partly drawn) [Compound 86, 4-(4-{2-[4-(5-fluoro-2,3-dihydro-benzofuran-2-carbonyl)-piperazin-1-yl]-2-oxo-ethoxy}-cyclohexylamino)-2-trifluoromethyl-benzonitrile], the inhibition at 5 µg/mL is not below 90%.

Take `CC1(CN2CCN(C(=O)CO[C@H]3CC[C@H](Nc4ccc([N+](=O)[O-])c(C(F)(F)F)c4)CC3)CC2)Cc2cc(F)ccc2O1` (stereo partly drawn) [Compound 377, 1-[4-[(5-fluoro-2-methyl-3H-benzofuran-2-yl)methyl]piperazin-1-yl]-2-[4-[4-nitro-3-(trifluoromethyl)anilino]cyclohexoxy]ethanone]: the inhibition at 5 µg/mL is not below 90%.

In the case of `CC(CN1CCN(c2ccc3cc(F)ccc3c2)CC1)C(=O)N1CCC(Nc2ccc([N+](=O)[O-])c(C(F)(F)F)c2)CC1` (stereo not drawn) [Compound 16, 3-[4-(6-fluoronaphthalen-2-yl)piperazin-1-yl]-2-methyl-1-(4-[[4-nitro-3-(trifluoromethyl)phenyl]amino]piperi-din-1-yl)propan-1-one], the inhibition at 5 µg/mL is not below 90%.

For `O=C(NCCO[C@H]1CC[C@H](Nc2ccc([N+](=O)[O-])c(C(F)(F)F)c2)CC1)C(=O)Nc1ccc2cc(Cl)ccc2c1` [Compound 174], the inhibition at 5 µg/mL is not below 90%.

Take `N#Cc1ccc(N[C@H]2CC[C@H](OCC(=O)N3CCN(c4nc5cc(C(F)(F)F)ccc5s4)CC3)CC2)cc1C(F)(F)F` [Compound 358, 4-(4-{2-oxo-2-[4-(5-trifluoromethyl-benzothiazol-2-yl)-piperazin-1-yl]-ethoxy}-cyclohexylamino)-2-trifluoromethyl-benzonitrile]: the inhibition at 5 µg/mL is not below 90%.

In the case of `O=C(CO[C@H]1CC[C@H](Nc2ccc([N+](=O)[O-])c(C(F)(F)F)c2)CC1)N1CCN(c2ccc3cc(Br)ccc3c2)CC1` [Compound 268, 1-[4-(6-bromo-naphthalen-2-yl)-piperazin-1-yl]-2-[4-(4-nitro-3-trifluoromethyl-phenylamino)-cyclohexyloxy]-ethanone], the inhibition at 5 µg/mL was not below 90%.

As to `C[C@@H]1CN(C(=O)CO[C@H]2CC[C@H](Nc3ccc([N+](=O)[O-])c(C(F)(F)F)c3)CC2)C[C@H](C)N1Cc1ccc2cc(F)ccc2c1` [Compound 372, 1-[(3S,5R)-4-(6-fluoro-naphthalen-2-ylmethyl)-3,5-dimethyl-piperazin-1-yl]-2-[4-(4-nitro-3-trifluoromethyl-phenylamino)-cyclohexyloxy]-ethanone], the inhibition at 5 µg/mL is not below 90%.

For the compound `O=C(NCCO[C@H]1CC[C@H](Nc2ccc([N+](=O)[O-])c(C(F)(F)F)c2)CC1)C(=O)Nc1ccc2ccccc2c1` [Compound 75, N-(naphthalen-2-yl)-N-[2-[(4-[[4-nitro-3-(trifluoromethyl)phenyl]amino]cyclohexyl)oxy]ethyl]ethanediamide], the inhibition at 5 µg/mL was not below 90%.

Turning to `O=C(CO[C@H]1CC[C@H](Nc2ccc([N+](=O)[O-])c(C(F)(F)F)c2)CC1)N1CCN(Cc2cc3cc(Cl)cc(Cl)c3o2)CC1` [Compound 319, 2-[(4-[[4-nitro-3-(trifluoromethyl)phenyl]amino]cyclohexyl)-oxy]1-[4-(5,7-dichlorobenzofuran-2-ylmethyl)piperazin-1-yl]ethan-1-one], the inhibition at 5 µg/mL is not below 90%.

Another experiment concerns microfilaria of Dirofilaria immitis. As to the kind of experiment: Method F: microfilaria of Dirofilaria immitis, survival at 24 hours.
Conditions: not given
For orientation: EC50 means the concentration needed to bring the measured effect to its halfway point. High values mean a less potent agent, low ones a more potent agent. As for `O=C(CO[C@H]1CC[C@H](Nc2ccc([N+](=O)[O-])c(C(F)(F)F)c2)CC1)N1CCc2cc(Cl)ccc2C1` [Compound 195, 1-(6-chloro-1,2,3,4-tetrahydroisoquinolin-2-yl)-2-[[4-[[4-nitro-3-(trifluoromethyl)phenyl]amino]cyclohexyl]oxy]ethan-1-one], the EC50 was less than 1 mg/L.

Still in this experiment, the particulars now being: survival of microfilaria at 24 hours.
`O=C(CO[C@H]1CC[C@H](Nc2ccc([N+](=O)[O-])c(C(F)(F)F)c2)CC1)Nc1ccc2cc(C(F)(F)F)ccc2n1` [Compound 210, 2-[[4-[[4-nitro-3-(trifluoromethyl)phenyl]amino]cyclohexyl]oxy]-N-[6-(trifluoromethyl)quino-lin-2-yl]acetamide]: the EC50 is less than 1 mg/L.

As for `O=C(CO[C@H]1CC[C@H](Nc2ccc([N+](=O)[O-])c(C(F)(F)F)c2)CC1)N1CCN(c2ccc(Cl)c3ccccc23)CC1` [Compound 161, 1-[4-(4-chloronaphthalen-1-yl)piperazin-1-yl]-2-[(4-[[4-nitro-3-(trifluoromethyl)phenyl]amino]cyclohe-xyl)oxy]ethan-1-one], the EC50 is less than 5 mg/L.

Consider `O=C(CO[C@H]1CC[C@H](Nc2ccc([N+](=O)[O-])c(C(F)(F)F)c2)CC1)N1CCN(c2ccnc3ccccc23)CC1` [Compound 160, 2-[(4-[[4-nitro-3-(trifluoromethyl)phenyl]amino]cyclohexyl)oxy]-1-[4-(quinolin-4-yl)piperazin-1-yl]ethan-1-one], for which the concentration giving a half-maximal response (EC50) was less than 5 mg/L.

Compound `O=C(CO[C@H]1CC[C@H](Nc2ccc([N+](=O)[O-])c(C(F)(F)F)c2)CC1)N1CCc2ccccc2C1` [Compound 192, 2-[[4-[[4-nitro-3-(trifluoromethyl)phenyl]amino]cyclohexyl]oxy]-1-(1,2,3,4-tetrahydroisoquinolin-2-yl)ethan-1-one] displayed an EC50 of less than 1 mg/L.

Take `O=C(NCCOc1ccc(Nc2ccc([N+](=O)[O-])c(C(F)(F)F)c2)cc1)C(=O)NCc1cc2cc(Cl)ccc2o1` [Compound 230, N^1-((5-chlorobenzofuran-2-yl)methyl)-N^2-(2-(4-(4-nitro-3-(trifluoromethyl)phenylamino)phenoxy)ethyl)oxalamide]: the concentration for a half-maximal effect (EC50) is less than 5 mg/L.

The compound `O=C(CO[C@H]1CC[C@H](Nc2ccc([N+](=O)[O-])c(C(F)(F)F)c2)CC1)N1CCc2cc(F)ccc2C1` [Compound 193, 1-(6-fluoro-1,2,3,4-tetrahydroisoquinolin-2-yl)-2-[[4-[[4-nitro-3-(trifluoromethyl)phenyl]amino]cyclohexyl]oxy]ethan-1-one] gave a 50% effective concentration (EC50) of less than 1 mg/L.

Compound `Cc1cc(N2CCN(CC(C)C(=O)N3CCC(Nc4ccc([N+](=O)[O-])c(C(F)(F)F)c4)CC3)CC2)nc2ccccc12` (stereo not drawn) [Compound 101, 2-methyl-3-[4-(4-methylquinolin-2-yl)piperazin-1-yl]-1-(4-[[4-nitro-3-(trifluoromethyl)phenyl]amino]piperidin-1-yl)propan-1-one] gave an EC50 of less than 1 mg/L.

In turn, `O=C(NCCOc1ccc(Nc2ccc([N+](=O)[O-])c(C(F)(F)F)c2)cc1)C(=O)NCc1cc2cc(C(F)(F)F)ccc2o1` [Compound 231] registered an EC50 of less than 5 mg/L.

Compound `O=C(COc1ccc2ccc([N+](=O)[O-])c(C(F)(F)F)c2c1)N1CCN(c2ccc(Cl)cn2)CC1` [Compound 114, 1-[4-(5-chloropyridin-2-yl)piperazin-1-yl]-2-[[7-nitro-8-(trifluoromethyl)naphthalen-2-yl]oxy]ethan-1-one] gave an EC50 of less than 5 mg/L.
